Assay [1] deals with guinea pigs. Nature of the assay: Effect on the flow rate of urine in guinea pigs, single or combined use, Experimental Example 4. Type of assay: in vivo, Hartley male guinea pigs. The settings on record: guinea pig; for Improvement (%): 10 minutes after administration. From the text: Effect on the flow rate of urine by single or combined use of Compounds of Reference Examples, distigmine, prazosin, and tamsulosin was examined using Hartley male guinea pigs. Four to six Hartley male guinea pigs weighing about 350 g (SLC) were employed in each treated group. Guinea pigs were anesthetized with urethane, and held, and the bladder was exposed. Two polyethylene tubes (PE-100) were inserted into the bladder. One of the tubes was used in infusion of physiological saline, and the other used for measurement of the internal pressure of the bladder. Saline was infused continuously at a flow rate of 0.3 mL/min. The infusion was stopped at the time when intermittent urination was confirmed at least 3 times, and the whole saline in bladder was removed. Again, infusion was started, and stopped at the time when a rise of the pressure in bladder was confirmed immediately before urination. Excreted urine was weighed on an electronic force balance (HX-400, A&D). Analogue data of the internal pressure of the bladder and urine weight were input in an AD converter (MP-30, Biopac Systems) and the digital signal was analyzed by means of purpose-made software (Student lab pro 2.1.5, Biopac Systems). Sampling interval of the date was fixed at 0.1 second, and the value of urine weight was differentiated to determine the flow rate of urine. In order to remove data noise of the excretion volume and flow rate of urine, the data was adapted to a lowcut filter at 0.5 Hz.
Measurement was made 2 times before administration of the test compound, and then the test compound was administered intravenously. Again, measurement was made 10 minutes after administration of the test compound.
The average measured value before administration of the test compounds was regarded as the value before administration, and the rate of change of the values from the ante-administration to the post-administration was calculated to compare between the groups by means of the Dunnet's test.

Assay [2] deals with T1, acetylcholinesterase of human erythrocyte origin (Homo sapiens, UniProt P22303).
T1 construct: Acetylcholinesterase of human erythrocyte origin (Sigma Chemical Co.); purchased Sigma Chemical Co; host or cells: human erythrocytes (natural source)
In words: Measurement of acetylcholinesterase-inhibiting action (acetylthiocholine / Ellman method), Experimental Example 1. The class given is biochemical. The settings on record: at least 3 experiments. The procedure: Acetylcholinesterase-inhibiting action of the compounds disclosed in Reference Examples was measured using acetylcholinesterase of human erythrocyte origin according to the acetylthiocholine method (Ellman method).
Acetylcholinesterase of human erythrocyte origin (Sigma Chemical Co.) was dissolved in distilled water at a concentration of 0.2 IU/mL to give an enzyme authentic sample. To a 96-well microplate was dispensed 20 μL of drug solution, 30 μL of 80 mM Tris-HCl (pH 7.4), 50 μL of enzyme authentic sample and 50 μL of 5 mM 5,5-dithio-bis(2-nitrobenzoic acid) (Sigma Chemical Co.), and the plate was shaken for 10 seconds. Then, 50 μL of acetylthiocholine iodide (Sigma Chemical Co.) was added, and the plate was again shaken. Immediately after shaking, increase of extinction at […] was measured at intervals of 30 seconds for 10 minutes. The enzyme activity was determined according to the following equation.
The experiment was repeated at least 3 times for each compound to obtain 50% inhibitory concentration (IC50). Moreover, in the same manner as mentioned above, acetylcholinesterase-inhibiting activity of distigmine was measured.

Another assay has as its system urinary bladder. Nature of the assay: Potentiation effect for rhythmic contraction of urinary bladder in guinea pig, Experimental Example 2. The settings on record: Cavia porcellus, iv, read-out: AUC200 (mg/kg, i.v.). Type of assay: in vivo, Hartley male guinea pigs. The procedure:
Potentiation effect of the compounds disclosed in Reference Examples for rhythmic contraction of urinary bladder was examined using Hartley male guinea pigs. Hartley male guinea pigs (SLC) weighing about 300 g were anesthetized with urethane (1.2 g/kg, i.p.), held, and incised at the midline of abdomen to expose the bladder. The urethra was ligated, and a polyethylene tube (PE-50) was inserted into the bladder. The internal pressure of the bladder was measured with a blood pressure amplifier (Nippon Koden), and the data was collected on a personal computer through an A/D converter (MP-30, Biopac Systems). A proper amount of physiological saline was injected into the bladder through a cannula to induce rhythmic contraction of the to bladder.
The area (AUC) that is formed by a curve of the internal pressure of the bladder and a base line was calculated through analytical software (Studentlab pro 2.1.5, Biopac Systems) to evaluate the effect of the test compounds. The curve of the internal pressure is made based on the bladder contraction immediately before administration of the test compound and the first contraction 5 minutes after the administration. From the dose-dependent curve of AUC, the dose at which AUC before drug administration was increased 2 times (AUC200) was calculated to determine potency of contraction-enhancing effect of the test compounds for the muscle of urinary bladder. In addition, the potency of contraction-enhancing effect of […] for the muscle of bladder was determined in the same manner as mentioned above.

Assay [3] concerns guinea pigs. Nature of the assay: Effect on urination efficiency in guinea pigs, Experimental Example 3. Type of assay: in vivo, Hartley male guinea pigs. The settings on record: guinea pig; for Efficiency of Urination (%) Before adm.: before administration; for Efficiency of Urination (%) After adm. / Improvement of Efficiency (%): 10 minutes after administration. From the text:
Effect of the compounds of Reference Examples on urination efficiency was examined using Hartley male guinea pigs. Six to ten Hartley male guinea pigs weighing 346.5±3.5 g (SLC) were employed in each treated group. Guinea pigs were anesthetized with urethane, and held, and the bladder was exposed. Two polyethylene tubes (PE-50 and PE-100) were inserted into the bladder. One (PE-50) of the tubes was used in infusion of physiological saline, and the other (PE-100) was used for measurement of the internal pressure of the bladder. Saline was infused continuously at a flow rate of 0.3 mL/min. The infusion was stopped at the time when intermittent urination was confirmed at least 3 times, and the whole saline in bladder was removed. Again, infusion was started, and stopped at the time when a rise of the pressure in bladder was confirmed immediately before urination, and the time required for infusion and the weight of excreted urine were measured. Efficiency of urination was calculated from the following equation. Efficiency of urination (%)=100×Excreted volume (mL)/Infusion time (min)×0.3 (mL/min)
Measurement was made at least 2 times before administration of the test compound, and then the test compound was dissolved in distilled water and administered intravenously. […] Effect by administration of solvents was also confirmed.
The average measured value before administration of the test compounds was regarded as the value before administration, and applied to the paired-t test for a significant difference test with the value after the administration. (** p<0.01, * p<0.05)

[4] abbreviates: urethane-anesthetized guinea pig, dose at which AUC of bladder internal pressure before drug administration was increased 2 times.

Where two headings read alike, the source gives them in different places. Marks after values point to notes of the source that are not given here.

Usually IC50 stands for the concentration at which inhibition is half-maximal. Higher therefore signals weaker potency.

T1 sequence (P22303 32-617 isoform P22303-2 limits assumed): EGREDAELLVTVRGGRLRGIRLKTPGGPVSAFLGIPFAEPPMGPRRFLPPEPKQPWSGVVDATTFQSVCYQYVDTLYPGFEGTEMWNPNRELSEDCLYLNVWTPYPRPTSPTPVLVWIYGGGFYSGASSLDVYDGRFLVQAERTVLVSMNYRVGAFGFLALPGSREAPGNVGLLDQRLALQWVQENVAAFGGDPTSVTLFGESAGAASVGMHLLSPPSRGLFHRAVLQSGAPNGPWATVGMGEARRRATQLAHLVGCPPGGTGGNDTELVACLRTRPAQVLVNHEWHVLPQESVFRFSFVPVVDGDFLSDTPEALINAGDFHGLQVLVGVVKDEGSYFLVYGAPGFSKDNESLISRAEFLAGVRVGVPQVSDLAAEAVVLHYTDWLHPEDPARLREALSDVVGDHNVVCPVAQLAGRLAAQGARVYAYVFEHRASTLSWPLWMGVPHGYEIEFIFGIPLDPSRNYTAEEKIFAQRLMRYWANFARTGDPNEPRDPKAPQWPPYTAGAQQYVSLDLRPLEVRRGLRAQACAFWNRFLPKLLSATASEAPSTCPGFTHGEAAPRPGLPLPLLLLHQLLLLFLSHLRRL

As for `COc1cc2nc(N3CCN(C(=O)c4ccco4)CC3)nc(N)c2cc1OC` [Prazosin], in the assay with guinea pigs [1] (prazosin 0.1 mg/kg i.v. group, before administration (Table 8)), the “Flow Rate (mL/sec) Ante-admn.” value came out at 0.18 ± 0.03 mL/s. Moreover, the “Flow Rate (mL/sec) Post-admn.” value in the assay with guinea pigs [1] (prazosin 0.1 mg/kg i.v., 10 minutes after administration (Table 8)) was 0.17 ± 0.02 mL/s. In the assay on guinea pigs [1] (prazosin 0.1 mg/kg i.v., control DMSO (Table 8)), the “Improvement (%)” value amounted to 0.97 ± 10.32%.

Consider `Cc1ccccc1CN1CCC(CCC(=O)c2cc3c4c(c2)CCN4C(=O)CC3)CC1` [compound 7], for which the 50% inhibitory concentration (IC50) in assay [2] came to 22.1 nM. For the same compound, the ED (2-fold bladder contraction AUC) with urinary bladder (setting [4]) worked out at 0.0055 mg/kg.

`O=C(CCC1CCN(Cc2cccc(Cl)c2)CC1)c1cc2c3c(c1)CCN3C(=O)CC2` [compound 4] registered an IC50 in assay [2] of 10.9 nM. In addition, the ED (2-fold bladder contraction AUC) in the assay with urinary bladder (setting [4]) was 0.005 mg/kg.

As to `CCOc1ccccc1OCCN[C@H](C)Cc1ccc(OC)c(S(N)(=O)=O)c1` [Tamsulosin], in the assay with guinea pigs [1] (tamsulosin 0.1 mg/kg i.v. group, before administration (Table 9)), the “Flow Rate (mL/sec) Ante-admn.” value stood at 0.16 ± 0.01 mL/s. Besides, the “Flow Rate (mL/sec) Post-admn.” value in the assay with guinea pigs [1] (tamsulosin 0.1 mg/kg i.v., 10 minutes after administration (Table 9)) was 0.14 ± 0.02 mL/s. Also, the “Improvement (%)” value in the assay with guinea pigs [1] (tamsulosin 0.1 mg/kg i.v., control distilled water (Table 9)) is reported as −11.8 ± 4.8%.

As to `O=C(CCC1CCN(Cc2ccccc2)CC1)c1cc2c3c(c1)CCN3C(=O)CC2` [Reference Example 17, 8-[3-[1-(phenylmethyl)-4-piperidinyl]-1-oxopropyl]-1,2,5,6-tetrahydro-4H-pyrrolo[3,2,1-ij]quinolin-4-one], in assay [2], it took 7.8 nM to reach half-maximal inhibition (IC50). In addition, the ED (2-fold bladder contraction AUC) in the assay with urinary bladder was 0.0034 mg/kg.

In assay [2], `O=C(CCC1CCN(Cc2cccc(F)c2)CC1)c1cc2c3c(c1)CCN3C(=O)CC2` [Reference Example 15, 8-[3-[1-[(3-fluorophenyl)methyl]-4-piperidinyl]-1-oxopropyl]-1,2,5,6-tetrahydro-4H-pyrrolo[3,2,1-ij]quinolin-4-one] gave a half-maximal inhibitory concentration (IC50) of 4.4 nM. In the assay on urinary bladder (setting [4]), the ED (2-fold bladder contraction AUC) was found to be 0.0013 mg/kg. Besides, the “Efficiency of Urination (%) Before adm.” value in the assay on guinea pigs [3] (0.003 mg/kg i.v. group) was 71.5 ± 7.9%; in the assay with guinea pigs [3] (0.01 mg/kg i.v. group) it was 60.0 ± 7.7%; in the assay with guinea pigs [3] (0.03 mg/kg i.v. group), 65.5 ± 9.0%. The “Efficiency of Urination (%) After adm.” value is on record as 79.6 ± 6.4% in the assay on guinea pigs [3] (0.003 mg/kg i.v.), 93.9 ± 3.0% in the assay on guinea pigs [3] (0.01 mg/kg i.v.) and 88.9 ± 3.1% in the assay on guinea pigs [3] (0.03 mg/kg i.v.). Moreover, the “Improvement of Efficiency (%)” value in the assay on guinea pigs [3] (0.003 mg/kg i.v.) is recorded as 16.2%; with guinea pigs [3] (0.01 mg/kg i.v.) it was 77.0** %; in the assay with guinea pigs [3] (0.03 mg/kg i.v.), 66.2* %. The “Flow Rate (mL/sec) Ante-admn.” value with guinea pigs [1] (Ref. Ex. 15 0.001 mg/kg i.v. group, before administration (Table 9)) came to 0.17 ± 0.03 mL/s; in the assay on guinea pigs [1] (Ref. Ex. 15 0.01 mg/kg i.v. group, before administration (Table 8)) it was 0.27 ± 0.03 mL/s. Further, the “Flow Rate (mL/sec) Post-admn.” value was found to be 0.15 ± 0.02 mL/s in the assay on guinea pigs [1] (Ref. Ex. 15 0.001 mg/kg i.v., 10 minutes after administration (Table 9)) and 0.29 ± 0.05 mL/s in the assay on guinea pigs [1] (Ref. Ex. 15 0.01 mg/kg i.v., 10 minutes after administration (Table 8)). Moreover, the “Improvement (%)” value in the assay on guinea pigs [1] (Ref. Ex. 15 0.001 mg/kg i.v., control distilled water (Table 9)) was −6.5 ± 12.1%; in the assay on guinea pigs [1] (Ref. Ex. 15 0.01 mg/kg i.v., control DMSO (Table 8)) it was 6.81 ± 7.84%.

`Cc1cccc(CN2CCC(CCC(=O)c3cc4c5c(c3)CCN5C(=O)CC4)CC2)c1` [compound 6] registered a concentration for half-maximal inhibition (IC50) in assay [2] of 18.9 nM. Besides, the ED (2-fold bladder contraction AUC) in the assay with urinary bladder (setting [4]) stood at 0.0049 mg/kg.

`N#Cc1cccc(CN2CCC(CCC(=O)c3cc4c5c(c3)CCN5C(=O)CC4)CC2)c1` [Reference Example 1] registered a half-maximal inhibitory concentration (IC50) in assay [2] of 13.6 nM. For the same compound, the ED (2-fold bladder contraction AUC) in the assay with urinary bladder (setting [4]) worked out at 0.005 mg/kg.

Take `O=C(CCC1CCN(Cc2ccccc2)CC1)c1cc2c3c(c1)CC(=O)N3CCC2` [compound 18]: the half-maximal inhibitory concentration (IC50) in assay [2] is 10.9 nM. For the same compound, the ED (2-fold bladder contraction AUC) with urinary bladder is 0.0051 mg/kg.

For `O=C(CCC1CCN(Cc2ccccc2O)CC1)c1cc2c3c(c1)CCN3C(=O)CC2` [compound 13], the IC50 in assay [2] is 5.2 nM. Also, in the assay on urinary bladder (setting [4]), the ED (2-fold bladder contraction AUC) turned out to be 0.0013 mg/kg.

As to `Nc1c2c(nc3ccccc13)CCCC2` [compound 30], the “Efficiency of Urination (%) Before adm.” value with guinea pigs [3] (0.3 mg/kg i.v. group (Ref. Ex. 30)) is 62.2 ± 5.1%; in the assay on guinea pigs [3] (1.0 mg/kg i.v. group (Ref. Ex. 30)), 62.8 ± 7.8%; in the assay with guinea pigs [3] (3.0 mg/kg i.v. group (Ref. Ex. 30)), 65.8 ± 8.9%. For the same compound, the “Efficiency of Urination (%) After adm.” value in the assay on guinea pigs [3] (0.3 mg/kg i.v.) is 74.5 ± 5.1%; in the assay with guinea pigs [3] (1.0 mg/kg i.v.), 84.9 ± 4.8%; with guinea pigs [3] (3.0 mg/kg i.v.), 89.0 ± 2.7%. Moreover, the “Improvement of Efficiency (%)” value with guinea pigs [3] (0.3 mg/kg i.v.) is 22.0** %; in the assay on guinea pigs [3] (1.0 mg/kg i.v.) it was 55.4* %; with guinea pigs [3] (3.0 mg/kg i.v.), 64.2* %.

Regarding `O=C(CCC1CCN(Cc2ccccc2Cl)CC1)c1cc2c3c(c1)CCN3C(=O)CC2` [compound 14], in assay [2], 9.9 nM corresponded to half-maximal inhibition (IC50). For the same compound, in the assay with urinary bladder (setting [4]), the ED (2-fold bladder contraction AUC) stood at 0.0016 mg/kg.

As for `O=C(CCC1CCN(Cc2cccc([N+](=O)[O-])c2)CC1)c1cc2c3c(c1)CCN3C(=O)CC2` [compound 12], in assay [2], 8.1 nM corresponded to half-maximal inhibition (IC50). In addition, in the assay on urinary bladder (setting [4]), the ED (2-fold bladder contraction AUC) is 0.006 mg/kg.

(Values after patent publication US8252814B2, “Agents and crystals for improving excretory potency of urinary bladder” (priority 1998, dated 2012).)
